Experimental data: US10786505B2, “Administration of NEDD8-activating enzyme inhibitor and chemotherapeutic agents” (Millennium Pharmaceuticals, Inc., priority 2013, dated 2020)

Columns and labels:
[1] = system: CALU-1; test: In vitro cell viability combination assay (CellTiter-Glo); type: cell-based; details: agent combined with MLN4924, vehicle PBS, 72 hr
From the text: (§1) After normalization, the controls are discarded.
(§2) Otherwise, the classification is “Additivity”.

[2] = system: CHAGO-K-1; test: as above; type: cell-based; details: agent combined with MLN4924, vehicle PBS, 72 hr
From the text: as §1, §2

[3] = system: EBC-1; test: as above; type: cell-based; details: agent combined with MLN4924, vehicle PBS, 72 hr
From the text: as §1, §2

[4] = system: HARA; test: as above; type: cell-based; details: agent combined with MLN4924, vehicle PBS, 72 hr
From the text: as §1, §2

[5] = system: KNS-62; test: as above; type: cell-based; details: agent combined with MLN4924, vehicle PBS, 72 hr
From the text: as §1, §2

[6] = system: LC-1-SQ; test: as above; type: cell-based; details: agent combined with MLN4924, vehicle PBS, 72 hr
From the text: as §1, §2

[7] = system: LK-2; test: as above; type: cell-based; details: agent combined with MLN4924, vehicle PBS, 72 hr
From the text: as §1, §2

[8] = system: LUDLU-1; test: as above; type: cell-based; details: agent combined with MLN4924, vehicle PBS, 72 hr
From the text: as §1, §2

[9] = system: NCI-H1299; test: as above; type: cell-based; details: agent combined with MLN4924, vehicle PBS, 72 hr
From the text: as §1, §2

[10] = system: NCI-H1703; test: as above; type: cell-based; details: agent combined with MLN4924, vehicle PBS, 72 hr
From the text: as §1, §2

[11] = system: NCI-H2170; test: as above; type: cell-based; details: agent combined with MLN4924, vehicle PBS, 72 hr
From the text: as §1, §2

[12] = system: NCI-H520; test: as above; type: cell-based; details: agent combined with MLN4924, vehicle PBS, 72 hr
From the text: as §1, §2

[13] = system: NCI-H596; test: as above; type: cell-based; details: agent combined with MLN4924, vehicle PBS, 72 hr
From the text: as §1, §2

[14] = system: NCI-H69; test: as above; type: cell-based; details: agent combined with MLN4924, vehicle DMSO, 96 hr
From the text: as §1, §2

[15] = system: RERF-LC-SQ1; test: as above; type: cell-based; details: agent combined with MLN4924, vehicle PBS, 72 hr
From the text: as §1, §2

[16] = system: SK-MES-1; test: as above; type: cell-based; details: agent combined with MLN4924, vehicle PBS, 72 hr
From the text: as §1, §2

[17] = system: SW1573; test: as above; type: cell-based; details: agent combined with MLN4924, vehicle PBS, 72 hr
From the text: as §1, §2

[18] = system: SW900; test: as above; type: cell-based; details: agent combined with MLN4924, vehicle PBS, 72 hr
From the text: as §1, §2

[19] = system: VMRC-LCP; test: as above; type: cell-based; details: agent combined with MLN4924, vehicle PBS, 72 hr
From the text: as §1, §2

[20] = system: LU1143 xenograft model; test: Combination of docetaxel or carboplatin and MLN4924 in LU1143 xenograft model; type: in vivo, mice; details: 50 mg/kg carboplatin QW IP
Method: (§3) Docetaxel (Henry Schein, Inc., Pittsburgh Pa., Qilu Pharmaceutical Co., Ltd., Jinan, Shandong, China, and Sanofi-Aventis) is formulated in 0.9% saline and administered by intravenous injection (IV) once weekly (QW) at 5 mg/kg or 10 mg/kg.
(§4) Carboplatin (CARBOplatin Injection, Hospira, Inc., Qilu Pharmaceutical Co., Ltd. Jinan, Shandong, China, and Teva Gry-Pharma GmbH, Ulm, Germany) is formulated in 0.9% saline and administered by IP injection once weekly (QW) at 50 mg/kg. The once weekly schedule is also described as every 7 days (Q7D).
(§5) Tumors are measured twice weekly using a vernier caliper. Tumor volumes are calculated using standard procedures (0.5×(length×width^2)). […] Tumor size and body weight are measured approximately twice a week for the duration of the study. Mice are euthanized when their tumor volume reached 10% of their body weight, or when the average tumor volume of a treatment or control group reached approximately 2000 mm^3. Tumor growth continued to be monitored after the dosing period in some studies. Average tumor volume is reported as a function of time for selected groups of selected studies in Figures A, B, and C.
Measurements from day 0 to 18, 21 or 22 are analyzed as specified in Tables 4-9. All tumor volumes have a value of 1 added to them before log10 transformation. For each animal, the log tumor volume at day 0 is subtracted from the log tumor volume on the subsequent days. This difference vs. time is used to calculate an area under the curve (AUC) for each animal using the trapezoid rule. […] The synergy score for the combination of agents A and B is defined as 100*(mean(AUCAB)−mean(AUCA)−mean(AUCB)+mean(AUCctl))/mean(AUCctl): where AUCAB, AUCA, AUCB, and AUCctl are the AUC values for animals in the combination group, the A group, the B group, and the control group, respectively. The standard error of the synergy score is computed based on the variation in the AUC values among the animals. […] If the P-value is above 0.05, then the combination is considered to be additive. […]

[21] = system: LXFE409 xenograft model; test: Combination of docetaxel or carboplatin and MLN4924 in LXFE409 xenograft model; type: in vivo, mice; details: LXFE409 xenograft; 50 mg/kg carboplatin QW IP
Method: LXFE409 squamous non small cell lung cancer tumor fragments are implanted into the subcutaneous space in the flank of female NMRI nu/nu mice (5-7 weeks, Janvier Labs, Saint Berthevin, France).
as §3, §4, §5
(§6) Measurements from day 0 to 18, 21 or 22 are analyzed as specified in Tables 4-9. All tumor volumes have a value of 1 added to them before log10 transformation. For each animal, the log tumor volume at day 0 is subtracted from the log tumor volume on the subsequent days. This difference vs. time is used to calculate an area under the curve (AUC) for each animal using the trapezoid rule. […] The synergy score for the combination of agents A and B is defined as 100*(mean(AUCAB)−mean(AUCA)−mean(AUCB)+mean(AUCctl))/mean(AUCctl): where AUCAB, AUCA, AUCB, and AUCctl are the AUC values for animals in the combination group, the A group, the B group, and the control group, respectively. The standard error of the synergy score is computed based on the variation in the AUC values among the animals. […] If the P-value is above 0.05, then the combination is considered to be additive. If the P-value is below 0.05, and the synergy score is less than zero, then the combination is considered to be synergistic. […] Otherwise, the combination is classified as antagonistic.

[22] = system: NCI-H69 xenograft model; test: Combination of carboplatin and MLN4924 in NCI-H69 xenograft model; type: in vivo, mice
Method: NCI-H69 or NCI-H82 small cell lung tumor fragments (30- to 40-mg) are implanted into the subcutaneous space in the area of the right flank of NCr nu/nu mice (7-10 weeks, Charles River Laboratories, Inc, Frederick Md. or Wilmington, Mass.) using a 12-gauge trocar.
as §4, §5, §6

[23] = system: A549; test: In vitro cell viability combination assay (CellTiter-Glo); details: agent combined with MLN4924, vehicle PBS, 72 hr
Method: (§7) General Method: Cells are grown in their respective growth media, supplemented with 10% fetal bovine serum unless otherwise noted. […] A portion of each plate is used for positive controls (no agent is added), while another portion of each plate is used for negative controls (no cells are added). Viability is assessed with CellTiter-Glo® Cell Viability reagent used according to manufacturer's instructions (Promega). Luminescence is measured using a LEADseeker imaging system (GE Healthcare).
(§8) The viability data is normalized separately for each plate by scaling the data so that the median of the negative controls is 0 and the median of the positive controls is 100. More formally,
(§9) [formula] where Vi is the normalized viability of the i^th well, Ui is the raw viability measurement, median (U) is the median of the negative controls, and median (U+) is the median of the positive controls. After normalization, the controls are discarded.
(§10) where E1, E2, E3, E4, I1, I2, I3, S1, S2, S3, and S4 are parameters, CA and CB are the respective concentrations of agents A and B, and V is the normalized viability measurement. It is assumed that the error values are independent and identically distributed normal random variables.
(§11) The Combination Index is computed based on an isobologram, which is a slice of the dose response surface with constant viability. For the present analysis, the 50% isobologram, which is the dose contour that has 50% viability, is used. […] Since the choice of (DA, DB) can be arbitrary, the constraint DA/DB=EC50A/EC50B is used.
(§12) In such cases, Nonlinear Blending can be used as an alternative measure of synergy or additivity. Nonlinear Blending is found by considering a slice of the dose response surface that intersects both concentration axes and runs parallel to the viability axis. Let VA and VB be the viability where the slice intersects the drug A and B axes, respectively. Let Vmax and Vmin be the maximum and minimum viabilities along the slice. Let NLBS=min(VA,VB)−Vmin NLBA=Vmax−max(VA,VB) Define the Nonlinear Blending value to be NLBS if NLBS>NLBA and −NLBA otherwise.
(§13) After completing the analysis of individual plates, the results are combined across the replicates. For a given measure and a set of replicates, the overall mean and standard error are computed using weighted averaging. A null mean, which corresponded to an additive effect, is then compared with the overall mean. The null mean is 1 for the Combination Index and 0 for Nonlinear Blending. Next, a two sized Z-test is performed based on the estimated mean and standard error. This produces a p-value for each measure and each cell line.
(§14) After computing the mean, standard error, and p-value for each set of replicates, these values require interpretation. Thus, a standard procedure is used to produce a classification (synergy, additivity, subadditivity, antagonism, or inconclusive) in each case. If the Combination Index exists for more than half of the replicates, then these measures are used to make the classification.
(§15) Consider the case where the Combination Index is used to make the classification. If the p-value is greater than 0.05, the estimate for the Combination Index is not statistically different from 1. However, if the standard error is also very large, then the estimate is too uncertain to be informative. […] Otherwise, the classification is “Additivity”. When the p-value is less than 0.05, the estimate for the Combination Index is statistically different from 1. However, if the mean is still close to 1, then the difference is not of practical significance. Thus, the result is classified based on the mean. A mean in the range (0.8, 1.2) is considered close enough to 1 to be classified as Additivity. A mean in the range (0, 0.8) is considered low enough to be classified as Synergy. […] The threshold value of 2 can be derived from the definition of the Combination Index.

[24] = system: HCT116; test: as above; details: agent combined with MLN4924, vehicle PBS, 48 hr
Method: as §7, §8, §9, §10, §11, §12, §13, §14, §15

[25] = system: NCI-H209; test: as above; details: agent combined with MLN4924, vehicle DMSO, 96 hr
Method: as §7, §8, §9, §10, §11, §12, §13, §14, §15

[26] = system: NCI-H510; test: as above; details: agent combined with MLN4924, vehicle DMSO, 96 hr
Method: as §7, §8, §9, §10, §11, §12, §13, §14, §15

[27] = system: NCI-H526; test: as above; details: agent combined with MLN4924, vehicle DMSO, 96 hr
Method: as §7, §8, §9, §10, §11, §12, §13, §14, §15

[28] = system: NCI-H82; test: as above; details: agent combined with MLN4924, vehicle DMSO, 96 hr
Method: as §7, §8, §9, §10, §11, §12, §13, §14, §15

N.N.O=C([O-])C1(C(=O)[O-])CCC1.[Pt+2] [carboplatin]
Combination Index [1]: 0.78 ± 0.05
Nonlinear Blending [1]: 11 ± 6
Combination Index [2]: 0.88 ± 0.03
Nonlinear Blending [2]: 11 ± 1
Combination Index [3]: 1.24 ± 0.06
Nonlinear Blending [3]: −7 ± 1
Combination Index [4]: 1.06 ± 0.1
Nonlinear Blending [4]: −3 ± 10
Combination Index [5]: 0.82 ± 0.1
Nonlinear Blending [5]: 10 ± 5
Combination Index [6]: 0.51 ± 0.04
Nonlinear Blending [6]: 28 ± 2
Combination Index [7]: 0.66 ± 0.05
Nonlinear Blending [7]: 15 ± 2
Combination Index [8]: 0.84 ± 0.2
Nonlinear Blending [8]: 5 ± 5
Combination Index [9]: 1.10 ± 0.05
Nonlinear Blending [9]: −8 ± 2
Combination Index [10]: 1.31 ± 0.02
Nonlinear Blending [10]: −23 ± 2
Combination Index [11]: 1.38 ± 0.1
Nonlinear Blending [11]: −19 ± 7
Nonlinear Blending [12]: 9 ± 20
Combination Index [13]: 0.59 ± 0.1
Nonlinear Blending [13]: 10 ± 7
Combination Index [14]: 1.18 ± 0.09
Nonlinear Blending [14]: −5 ± 1
Combination Index [15]: 0.77 ± 0.06
Nonlinear Blending [15]: 11 ± 1
Combination Index [16]: 1.32 ± 0.06
Nonlinear Blending [16]: −22 ± 4
Nonlinear Blending [17]: 6 ± 5
Combination Index [18]: 0.85 ± 0.06
Nonlinear Blending [18]: 10 ± 1
Combination Index [19]: 1.00 ± 0.04
Nonlinear Blending [19]: −3 ± 1
average tumor volume day 21 [20]: 658.7 mm^3
average tumor volume day 21 [21]: 204.4 mm^3
average tumor volume day 21 ([22]; 50 mg/kg carboplatin QW IP): 501.3 mm^3
tumor growth during the treatment period (in words) ([22]; FIG. 3, MLN4924 SC 120 mg/kg BID Q3Dx2/week, carboplatin 50 mg/kg IP QW, single agents or their combination): inhibited tumor growth compared to the control vehicle group
Combination Index [23]: 0.72 ± 0.05
Nonlinear Blending [23]: 8 ± 4
Combination Index [24]: 0.71 ± 0.03
Nonlinear Blending [24]: 19 ± 2
Combination Index [25]: 1.00 ± 0.06
Nonlinear Blending [25]: −1 ± 1
Combination Index [26]: 0.81 ± 0.08
Nonlinear Blending [26]: 5 ± 2
Combination Index [27]: 1.02 ± 0.1
Nonlinear Blending [27]: 0 ± 2
Combination Index [28]: 0.65 ± 0.1
Nonlinear Blending [28]: 12 ± 2
